Measurements published in patent US10131675B2 (Genentech, Inc., priority 2015, dated 2018).
pKi: −log10 of the molar value.

target: DLK (Homo sapiens (Human), UniProt Q12852); assay: DLK TR-FRET Inhibition Assay; format: biochemical; conditions: N-terminally GST-tagged DLK (catalytic domain amino acid 1-520), MKK4 K131M substrate, 30 μM ATP; read-out: DLK HTRF Ki
Protocol: DLK kinase reactions (20 μL) containing 5 nM N-terminally GST-tagged DLK (catalytic domain amino acid 1-520) (Carna Bioscience), 40 nM N-terminally HIS tagged MKK4 K131M substrate, and 30 μM ATP in kinase reaction buffer (50 mM HEPES, pH 7.5, 0.01% Triton X-100, 0.01% Bovine γ-Globulins, 2 mM DTT, 10 mM MgCl2 and 1 mM EGTA), and testing compound 1:3 serial diluted starting at 20 uM were incubated at ambient temperature for 60 minutes in 384 well OptiPlate (Perkin Elmer). To quench kinase reactions and detect phosphorylated MKK4, 15 μL of TR-FRET antibody mixture containing 2 nM anti-phosphorylated MKK4 labeled with Europium cryptate (Cisbio) and 23 nM anti-HIS labeled with D2 (Cisbio) in detection buffer (25 mM Tris pH 7.5, 100 mM NaCl, 100 mM EDTA, 0.01% Tween-20, and 200 mM KF) was added to the reaction mixture. The detection mixture was incubated for 3 hours at ambient temperature and the TR-FRET was detected with an EnVision multilabel plate reader (Perkin-Elmer) using the LANCE/DELFIA Dual Enh label from Perkin-Elmer (excitation filter: UV2 (TRF) 320 and emission filters: APC 665 and Europium 615).

Chain of DLK (Q12852 1-520): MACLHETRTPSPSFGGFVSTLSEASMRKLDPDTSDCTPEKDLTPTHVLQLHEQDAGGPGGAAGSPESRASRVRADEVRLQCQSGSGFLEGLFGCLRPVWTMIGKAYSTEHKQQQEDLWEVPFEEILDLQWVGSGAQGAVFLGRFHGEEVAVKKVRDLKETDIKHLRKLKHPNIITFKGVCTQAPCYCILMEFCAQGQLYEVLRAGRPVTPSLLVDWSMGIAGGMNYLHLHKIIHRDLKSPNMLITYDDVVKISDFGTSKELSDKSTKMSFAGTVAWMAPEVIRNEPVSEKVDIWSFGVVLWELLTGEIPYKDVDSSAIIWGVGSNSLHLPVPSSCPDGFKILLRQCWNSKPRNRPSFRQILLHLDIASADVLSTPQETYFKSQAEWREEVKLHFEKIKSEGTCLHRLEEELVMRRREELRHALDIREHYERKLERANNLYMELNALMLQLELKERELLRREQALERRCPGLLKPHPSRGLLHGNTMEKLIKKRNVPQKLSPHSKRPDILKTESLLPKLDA

SMILES | pKi
CC1(C)OCCn2c1nc1c(N3CC4CCOC4C3)nc(-c3cnc(N)nc3)nc12 (centres unmarked) [Example 14, 5-[1-(Hexahydro-furo[2,3-c]pyrrol-5-yl)-8,8-dimethyl-5,6-dihydro-8H-7-oxa-2,4,4b,9-tetraaza-fluoren-3-yl]-pyrimidin-2-ylamine] | 6.00
CC(C)N(c1nc(-c2cnc(N)nc2)nc2c1nc1n2CCOC1(C)C)C1CC1 [Example 63, 2-(2-aminopyrimidin-5-yl)-N-cyclopropyl-N-isopropyl-6,6-dimethyl-8,9-dihydro-6H-[1,4]oxazino[4,3-e]purin-4-amine] | 6.25
CC1(C)CN(c2nc(-c3cnc(N)nc3)nc3c2nc2n3CCOC2(C)C)C1 [Example 31, 5-[1-(3,3-Dimethyl-azetidin-1-yl)-8,8-dimethyl-5,6-dihydro-8H-7-oxa-2,4,4b,9-tetraaza-fluoren-3-yl]-pyrimidin-2-ylamine] | 6.37
CC1(C)OCCn2c1nc1c(N3CC4CC3C4)nc(-c3cnc(N)c(C4CC4)c3)nc12 [Example 44, 5-[1-(2-Aza-bicyclo[2.1.1]hex-2-yl)-8,8-dimethyl-5,6-dihydro-8H-7-oxa-2,4,4b,9-tetraaza-fluoren-3-yl]-3-cyclopropyl-pyridin-2-ylamine] | 6.21
C[C@@]1(C2CC2)OCCn2c1nc1c(C3CC3)nc(-c3cnc(N)nc3)nc12 (single isomer, unassigned) [Example 106] | 6.41
COc1cc(-c2nc(N3CCC(F)(F)C3)c3nc4n(c3n2)CCOC4(C)C)cnc1N [Example 73, 5-(4-(3,3-difluoropyrrolidin-1-yl)-6,6-dimethyl-8,9-dihydro-6H-[1,4]oxazino[4,3-e]purin-2-yl)-3-methoxypyridin-2-amine] | 6.53
CNc1ncc(-c2nc(N3CC4CC3C4)c3nc4n(c3n2)CCOC4(C)C)cn1 [Example 47] | 5.89
CC1(C)OCCn2c1nc1c(N3CCCC34CCOC4)nc(-c3cnc(N)nc3)nc12 (centres unmarked) [Example 16, 5-[8,8-Dimethyl-1-(7-oxa-1-aza-spiro[4.4]non-1-yl)-5,6-dihydro-8H-7-oxa-2,4,4b,9-tetraaza-fluoren-3-yl]-pyrimidin-2-ylamine] | 6.49
CC1(C)OCCn2c1nc1c(N3CCC4(CCOC4)C3)nc(-c3cnc(N)nc3)nc12 (centres unmarked) [Example 12, 5-[8,8-Dimethyl-1-(2-oxa-7-aza-spiro[4.4]non-7-yl)-5,6-dihydro-8H-7-oxa-2,4,4b,9-tetraaza-fluoren-3-yl]-pyrimidin-2-ylamine] | 6.23
CCC1CCCN1c1nc(-c2cnc(N)nc2)nc2c1nc1n2CCOC1(C)C (centres unmarked) [Example 24, 5-[1-(2-Ethyl-pyrrolidin-1-yl)-8,8-dimethyl-5,6-dihydro-8H-7-oxa-2,4,4b,9-tetraaza-fluoren-3-yl]-pyrimidin-2-ylamine] | 6.53
CC1(C)OCCn2c1nc1c(N3CCCC3)nc(-c3cnc(N)nc3)nc12 [Example 18, 5-(8,8-Dimethyl-1-pyrrolidin-1-yl-5,6-dihydro-8H-7-oxa-2,4,4b,9-tetraaza-fluoren-3-yl)-pyrimidin-2-ylamine] | 6.40
CC1(C)OCCn2c1nc1c(N3CC(F)(F)C3)nc(-c3cnc(N)c(OCC4CC4)c3)nc12 [Example 70] | 6.38
COCC1CCCN1c1nc(-c2cnc(N)nc2)nc2c1nc1n2CCOC1(C)C (centres unmarked) [Example 1, 5-(4-(2-(methoxymethyl)pyrrolidin-1-yl)-6,6-dimethyl-8,9-dihydro-6H-[1,4]oxazino[4,3-e]purin-2-yl)pyrimidin-2-amine] | 6.41
CC1CCC(C)N1c1nc(-c2cnc(N)nc2)nc2c1nc1n2CCOC1(C)C (centres unmarked) [Example 54, 5-[1-(2,5-Dimethyl-pyrrolidin-1-yl)-8,8-dimethyl-5,6-dihydro-8H-7-oxa-2,4,4b,9-tetraaza-fluoren-3-yl]-pyrimidin-2-ylamine] | 6.55
CC[C@]1(C)OCCn2c1nc1c(N3CC4CC3C4)nc(-c3cnc(N)nc3)nc12 (single isomer, unassigned) [Example 94] | 6.55
CCOc1cc(-c2nc(N3CCC(F)(F)C3)c3nc4n(c3n2)CCOC4(C)C)cnc1N [Example 78] | 6.25
Cn1cc(-c2nc(-c3cnc(N)nc3)nc3c2nc2n3CCOC2(C)C)cn1 [Example 113, 5-(6,6-dimethyl-4-(1-methyl-1H-pyrazol-4-yl)-8,9-dihydro-6H-[1,4]oxazino[4,3-e]purin-2-yl)pyrimidin-2-amine] | 6.28

The next molecules have a higher pKi than those just listed; values first:

pKi | SMILES
7.38 | CC1(C)OCCn2c1nc1c(N3CC4CC3C4)nc(-c3cnc(N)c(OC(F)F)c3)nc12 [Example 43, 5-[1-(2-Aza-bicyclo[2.1.1]hex-2-yl)-8,8-dimethyl-5,6-dihydro-8H-7-oxa-2,4,4b,9-tetraaza-fluoren-3-yl]-3-difluoromethoxy-pyridin-2-ylamine]
8.01 | Cc1c[nH]c2ncc(-c3nc(N4CC(F)C4)c4nc5n(c4n3)CCOC5(C)C)cc12 [Example 4, 1-(3-Fluoro-azetidin-1-yl)-8,8-dimethyl-3-(3-methyl-1H-pyrrolo[2,3-b]pyridin-5-yl)-5,6-dihydro-8H-7-oxa-2,4,4b,9-tetraaza-fluorene]
7.75 | CN(C)c1nc(-c2cnc3[nH]cc(C#N)c3c2)nc2c1nc1n2CCCOC1 [Example 128, 5-(4-(dimethylamino)-6,8,9,10-tetrahydro-[1,4]oxazepino[4,3-e]purin-2-yl)-1H-pyrrolo[2,3-b]pyridine-3-carbonitrile]
6.61 | CC1(C)OCCn2c1nc1c(N3CCC(C(F)(F)F)C3)nc(-c3cnc(N)nc3)nc12 (centres unmarked) [Example 28, 5-[8,8-Dimethyl-1-(3-trifluoromethyl-pyrrolidin-1-yl)-5,6-dihydro-8H-7-oxa-2,4,4b,9-tetraaza-fluoren-3-yl]-pyrimidin-2-ylamine]
7.21 | C[C@H]1COC(C)(C)c2nc3c(N4CC5CC4C5)nc(-c4cnc(N)nc4)nc3n21 (single isomer, unassigned) [Example 97]
6.68 | C[C@@H]1CCCN1c1nc(-c2cnc(N)nc2)nc2c1nc1n2CCOC1(C)C [Example 26, 5-[8,8-Dimethyl-1-((R)-2-methyl-pyrrolidin-1-yl)-5,6-dihydro-8H-7-oxa-2,4,4b,9-tetraaza-fluoren-3-yl]-pyrimidin-2-ylamine]
6.58 | CC1(C)OCCn2c1nc1c(N3CC4CC3CC4(F)F)nc(-c3cnc(N)nc3)nc12 (centres unmarked) [Example 11]
6.60 | CCN(c1nc(-c2cnc(N)nc2)nc2c1nc1n2CCOC1(C)C)C1CC1 [Example 61, 2-(2-aminopyrimidin-5-yl)-N-cyclopropyl-N-ethyl-6,6-dimethyl-8,9-dihydro-6H-[1,4]oxazino[4,3-e]purin-4-amine]
7.22 | CC1(C)OCCn2c1nc1c(NC3CCCC3)nc(-c3cnc(N)nc3)nc12 [Example 123, 2-(2-aminopyrimidin-5-yl)-N-cyclopentyl-6,6-dimethyl-8,9-dihydro-6H-[1,4]oxazino[4,3-e]purin-4-amine]
7.85 | COc1nc(-c2cnc3[nH]cc(C(F)(F)F)c3c2)nc2c1nc1n2CCOC1(C)C [Example 87]
6.57 | CC1(C)OCCn2c1nc1c(N3CCC4(COC4)C3)nc(-c3cnc(N)c(C(F)(F)F)c3)nc12 [Example 49, 5-[8,8-Dimethyl-1-(2-oxa-6-aza-spiro[3.4]oct-6-yl)-5,6-dihydro-8H-7-oxa-2,4,4b,9-tetraaza-fluoren-3-yl]-3-trifluoromethyl-pyridin-2-ylamine]
6.80 | CC1(C)OCCn2c1nc1c(N3CC4CC(F)(F)C4C3)nc(-c3cnc(N)nc3)nc12 (centres unmarked) [Example 10, 5-[1-(6,6-Difluoro-3-aza-bicyclo[3.2.0]hept-3-yl)-8,8-dimethyl-5,6-dihydro-8H-7-oxa-2,4,4b,9-tetraaza-fluoren-3-yl]-pyrimidin-2-ylamine]
6.70 | CC1(C)OCCn2c1nc1c(N3CCC4CC43)nc(-c3cnc(N)nc3)nc12 (centres unmarked) [Example 7, 5-[1-(2-Aza-bicyclo[3.1.0]hex-2-yl)-8,8-dimethyl-5,6-dihydro-8H-7-oxa-2,4,4b,9-tetraaza-fluoren-3-yl]-pyrimidin-2-ylamine]
6.99 | C[C@@H]1COC(C)(C)c2nc3c(C4CC4)nc(-c4cnc(N)nc4)nc3n21 (single isomer, unassigned) [Example 101]
6.58 | C[C@@H]1O[C@@H](C)Cn2c1nc1c(N3CC4CC3C4)nc(-c3cnc(N)nc3)nc12 [Example 153]
7.67 | CC1(C)OCCn2c1nc1c(N3CC4CC3C4)nc(-c3cnc(N)nc3)cc12 [Example 116, 5-(9-(2-azabicyclo[2.1.1]hexan-2-yl)-1,1-dimethyl-3,4-dihydro-1H-pyrido[3′,4′:4,5]imidazo[2,1-c][1,4]oxazin-7-yl)pyrimidin-2-amine]
7.13 | CC1(C)OCCn2c1nc1c(NC3CCC3)nc(-c3cnc(N)nc3)nc12 [Example 124]
7.88 | Cc1c[nH]c2ncc(-c3nc(N4CC(O)C4)c4nc5n(c4n3)CCOC5(C)C)cc12 [Example 32, 1-[8,8-Dimethyl-3-(3-methyl-1H-pyrrolo[2,3-b]pyridin-5-yl)-5,6-dihydro-8H-7-oxa-2,4,4b,9-tetraaza-fluoren-1-yl]-azetidin-3-ol]
7.01 | CC1(C)OCCn2c1nc1c(N3CCC(F)(F)C3)nc(-c3cnc(N)nc3)nc12 [Example 76]
8.26 | Cc1c[nH]c2ncc(-c3nc(C4CC4)c4nc5n(c4n3)CCOC5(C)C)cc12 [Example 121]
7.38 | C[C@@H]1COC(C)(C)c2nc3c(N4CC5CC4C5)nc(-c4cnc(N)nc4)nc3n21 (single isomer, unassigned) [Example 96]
